Results on nine molecules are retold here after patent publication US20240197897A1, “HETEROTANDEM BICYCLIC PEPTIDE COMPLEXES” (Bicycle Tx Limited, priority 2021, published 2024).

Like-named read-outs stand apart in the source and are kept apart here. Starred links: 1 amine or outer side, 2 acyl side, 3 side chain; linkers in the order of their positions; H or OH if unused. Positions of bridges follow the written chain, without caps; N, C: chain ends. Non-standard residues stand in square brackets, D forms with d. Residues, ends and D or L forms follow the SMILES beside them. Chains are numbered I, II in the order given. No end group written: not given here. *: point of attachment. X3 = O=C(CCOCCOCCOCCOCCOCCOCCOCCOCCOCCOCCOCCOCCOCCOCCOCCOCCOCCOCCOCCOCCOCCOCCOCCOCCn1cc(CCC(=O)[*:2])nn1)[*:1]; TBMT = 2,4,6-tris(bromomethyl)-s-triazine, molecular scaffold, C(c1nc(C[*:2])nc(C[*:3])n1)[*:1]; X1 = O=C(CCOCCOCCOCCN(CCOCCOCCOCCn1cc(CCC(=O)[*:2])nn1)CCOCCOCCOCCn1cc(CCC(=O)[*:3])nn1)[*:1]; TATA = O=C(CC[*:1])N1CN(C(=O)CC[*:2])CN(C(=O)CC[*:3])C1; Hyp = O=C(O)[C@@H]1C[C@@H](O)CN1; hArg = N=C(N)NCCCC[C@H](N)C(=O)O; Cba = N[C@@H](CC1CCC1)C(=O)O; Pent4ynoyl = C#CCCC(=O)*

Series [1] is described as follows: NK cytotoxicity assay (NK:HT1080-luc co-culture, luciferase readout). Type of series: cell-based, human. The note with it: NK:HT1080-luc co-culture, 24 hours, read-out: EC50 NK cytotoxicity (tumor cell killing). The protocol:
(§1) Heterotandem bicyclic peptide complexes were evaluated for NK functional readouts (cytotoxicity and cytokine secretion) in NK-tumor cell line co-cultures.
(§2) NK cells were isolated using a negative isolation kit (STEMCELL™ Technologies 17955) from the total PBMC population purified from whole blood. NK cell pellet was then resuspended in DMEM medium (Corning™ 10-013-CV) with 10% heat-inactivated fetal bovine serum (FBS; Corning® 35-011-CV), 10 mM HEPES (Gibco™ 15-630-080), and 1% Penicillin Streptomycin (Corning™ 30-002-CI), and 50 IU/mL human IL-2 (Miltenyi Biotec® 130-097-748), at a concentration of 4×10^5 cells/mL. For the NK cell cytotoxicity assays, 50 μL (2×10^4) of cell suspension was plated in the 96-well plate (Grenier® Bio One™ 655090) containing 50 μl (4×10^3) HT1080-luc cells (ATCC® CCL-121-luc2) in DMEM (Gibco™ 11875-093; with L-glutamine) with 10% heat-inactivated fetal bovine serum (FBS; Corning® 35-011-CV), 10 mM HEPES (Gibco™ 15-630-080), and 1% Penicillin Streptomycin (Corning™ 30-002-CI). […] The plates were then incubated for 24 hours at 37° C., 5% CO2. Post-incubation, plates was centrifuged at 250×g for 5 minutes and 100 μl supernatant discarded. Samples were then incubated 10 minutes with 50 μl Bright-Glo™ Luciferase Assay system (Promega™ E2620). Luminescence upon excitation at 570 nm was read using a CLARIOstar® plate-reader with MARS Data Analysis Software™. Data was fit to a four-parameter non-linear regression in GraphPad Prism™ 8.0.2 to generate an EC50 value.

Series [2] deals with HT1080-luc cells. Described as above. Type of series: cell-based, human. The note with it: for effect on tumor cell killing by NK cells, in words: in comparison to NK:HT1080-luc co-culture without heterotandem complex (NK-TICA). On the procedure:
as §1, §2

Series [3] has as its target NKp46 (human) (UniProt O76036). As to the kind of experiment: cell-based or functional assay.
The mark [4] stands for this setting: four-parameter logistic regression, FIGS. 2-4, 6-8, 10.

Chain of NKp46 (human) (O76036 22-304): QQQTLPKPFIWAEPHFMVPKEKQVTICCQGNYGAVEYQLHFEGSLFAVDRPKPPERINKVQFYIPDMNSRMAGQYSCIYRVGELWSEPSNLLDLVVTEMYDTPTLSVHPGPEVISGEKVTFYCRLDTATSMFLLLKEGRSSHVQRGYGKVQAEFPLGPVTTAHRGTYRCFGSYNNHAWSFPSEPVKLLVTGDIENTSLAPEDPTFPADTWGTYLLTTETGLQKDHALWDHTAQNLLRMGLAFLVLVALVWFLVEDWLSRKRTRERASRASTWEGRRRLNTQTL

Regarding `CC(=O)N[C@H]1CSCCC(=O)N2CN3CN(C2)C(=O)CCSC[C@H](NC(=O)[C@H](CC(C)C)NC(=O)[C@H](Cc2ccc(O)cc2)NC(=O)[C@H](CC(=O)O)NC(=O)[C@@H]2CCCN2C(=O)[C@H](CC2CCC2)NC(=O)[C@H](Cc2ccc(O)cc2)NC1=O)C(=O)N[C@H](C)C(=O)N[C@@H](CC(=O)O)C(=O)N[C@@H](CCC(=O)O)C(=O)N[C@@H](Cc1ccc(O)cc1)C(=O)N[C@H](C(=O)N[C@@H](CCCCNC(=O)CCc1cn(CCOCCOCCOCCN(CCOCCOCCOCCC(=O)N[C@@H](CC(C)C)C(=O)N2CCC[C@H]2C(=O)N2CCC[C@H]2C(=O)N[C@H]2CSCCC(=O)N4CN5CN(C4)C(=O)CCSC[C@H](NC(=O)[C@H](CCC(=O)O)NC(=O)[C@H](CCCCNC(=N)N)NC(=O)[C@H](C(C)C)NC2=O)C(=O)N[C@@H](C)C(=O)N[C@@H](CC(C)(C)C)C(=O)N[C@@H](CC(C)C)C(=O)N[C@@H](Cc2ccccc2)C(=O)N2CCC[C@H]2C(=O)N[C@@H](CCCCNC(=N)N)C(=O)N[C@@H]([C@@H](C)O)C(=O)N[C@H](C(N)=O)CSCCC5=O)CCOCCOCCOCCn2cc(CCC(=O)NCCCC[C@H](NC(=O)[C@@H]4CSCCC(=O)N5CN6CN(C5)C(=O)CCSC[C@H](NC(=O)[C@H](CC(C)C)NC(=O)[C@H](Cc5ccc(O)cc5)NC(=O)[C@H](CC(=O)O)NC(=O)[C@@H]5CCCN5C(=O)[C@H](CC5CCC5)NC(=O)[C@H](Cc5ccc(O)cc5)NC(=O)[C@@H](NC(C)=O)CSCCC6=O)C(=O)N[C@H](C)C(=O)N[C@@H](CC(=O)O)C(=O)N[C@@H](CCC(=O)O)C(=O)N[C@@H](Cc5ccc(O)cc5)C(=O)N4)C(N)=O)nn2)nn1)C(N)=O)CSCCC3=O` [BCY18604], the EC50 in series [1] (setting [4]) is 0.0079 nM. Also, the “effect on tumor cell killing by NK cells, in words” value (shortened to “effect on tumor cell killing”) in series [2] is given as “enhanced NK cytotoxicity”.
With “I: A[hArg]DC[Hyp]LVNPLCLHP[dD]W[hArg]C-NH2 / II: ACNLQAPCMQTGKVCAK-NH2 / III: ACNLQAPCMQTGKVCAK-NH2 (linker I:4-I:11-I:18, II:2-II:8-II:15, III:2-III:8-III:15 via TATA; linker I:N-II:17-III:17 via X1; C-terminus assumed) [BCY15924]”, the EC50 in series [1] (FIG. 9) was determined as 0.5 nM. The “effect on tumor cell killing” value in series [2] is “enhanced NK cytotoxicity”.
As to “I: Ac-D[hArg]CSAGWLTMCQKLHLCPSH-NH2 / II: Ac-CY[Cba]PDYLC[dA]DEYCK-NH2 / III: Ac-CY[Cba]PDYLC[dA]DEYCK-NH2 (linker I:3-I:11-I:17, II:1-II:8-II:13, III:1-III:8-III:13 via TATA; linker I:13-II:14-III:14 via X1; C-terminus assumed) [BCY18603]”, in series [1] (setting [4]), the EC50 was 0.003 nM. Also, the “effect on tumor cell killing” value in series [2] was “enhanced NK cytotoxicity”.
`CC(=O)N[C@H]1CSCCC(=O)N2CN3CN(C2)C(=O)CCSC[C@H](NC(=O)[C@H](CC(C)C)NC(=O)[C@H](Cc2ccc(O)cc2)NC(=O)[C@H](CC(=O)O)NC(=O)[C@@H]2CCCN2C(=O)[C@H](CC2CCC2)NC(=O)[C@H](Cc2ccc(O)cc2)NC1=O)C(=O)N[C@H](C)C(=O)N[C@@H](CC(=O)O)C(=O)N[C@@H](CCC(=O)O)C(=O)N[C@@H](Cc1ccc(O)cc1)C(=O)N[C@H](C(=O)N[C@@H](CCCCNC(=O)CCc1cn(CCOCCOCCOCCOCCOCCOCCOCCOCCOCCOCCOCCOCCOCCOCCOCCOCCOCCOCCOCCOCCOCCOCCOCCOCCC(=O)N[C@@H](C)C(=O)N[C@@H](CCCCNC(=N)N)C(=O)N[C@@H](CC(=O)O)C(=O)N[C@H]2CSCCC(=O)N4CN5CN(C4)C(=O)CCSC[C@H](NC(=O)[C@H](CC(C)C)NC(=O)[C@@H]4CCCN4C(=O)[C@H](CC(N)=O)NC(=O)[C@H](C(C)C)NC(=O)[C@H](CC(C)C)NC(=O)[C@@H]4C[C@@H](O)CN4C2=O)C(=O)N[C@@H](CC(C)C)C(=O)N[C@@H](Cc2c[nH]cn2)C(=O)N2CCC[C@H]2C(=O)N[C@H](CC(=O)O)C(=O)N[C@@H](Cc2c[nH]c4ccccc24)C(=O)N[C@@H](CCCCNC(=N)N)C(=O)N[C@H](C(N)=O)CSCCC5=O)nn1)C(N)=O)CSCCC3=O` [BCY18731] (I: A[hArg]DC[Hyp]LVNPLCLHP[dD]W[hArg]C-NH2 / II: Ac-CY[Cba]PDYLC[dA]DEYCK-NH2; linker I:4-I:11-I:18, II:1-II:8-II:13 via TATA; linker I:N-II:14 via X3; C-terminus assumed): the EC50 in series [1] (setting [4]) is 0.018 nM.
“I: A[hArg]DC[Hyp]LVNPLCLHP[dD]W[hArg]C-NH2 / II: Ac-CY[Cba]PDYLC[dA]DEYCK-NH2 / III: Ac-CY[Cba]PDYLC[dA]DEYCK-NH2 (linker I:4-I:11-I:18, II:1-II:8-II:13, III:1-III:8-III:13 via TATA; linker I:N-II:14-III:14 via X1; C-terminus assumed) [BCY17226]”: in series [1] (setting [4]), the EC50 is 0.0061 nM. Moreover, the “effect on tumor cell killing” value in series [2] is “dose-dependent NK cell response to kill”.
The corresponding values for `CC[C@H](C)[C@@H]1NC(=O)CNC(=O)[C@H](Cc2c[nH]c3ccccc23)NC(=O)[C@H](CCC(N)=O)NC(=O)[C@@H]2CSCCC(=O)N3CN(CN(C3)C(=O)CCSC[C@@H](C(=O)N[C@@H](C)C(=O)N[C@@H](CCCCNC(=O)CCc3cn(CCOCCOCCOCCN(CCOCCOCCOCCC(=O)N[C@@H](C)C(=O)N[C@@H](CCCCNC(=N)N)C(=O)N[C@@H](CC(=O)O)C(=O)N[C@H]4CSCCC(=O)N5CN6CN(C5)C(=O)CCSC[C@H](NC(=O)[C@H](CC(C)C)NC(=O)[C@@H]5CCCN5C(=O)[C@H](CC(N)=O)NC(=O)[C@H](C(C)C)NC(=O)[C@H](CC(C)C)NC(=O)[C@@H]5C[C@@H](O)CN5C4=O)C(=O)N[C@@H](CC(C)C)C(=O)N[C@@H](Cc4c[nH]cn4)C(=O)N4CCC[C@H]4C(=O)N[C@H](CC(=O)O)C(=O)N[C@@H](Cc4c[nH]c5ccccc45)C(=O)N[C@@H](CCCCNC(=N)N)C(=O)N[C@H](C(N)=O)CSCCC6=O)CCOCCOCCOCCn4cc(CCC(=O)NCCCC[C@H](NC(=O)[C@H](C)NC(=O)[C@@H]5CSCCC(=O)N6CN7CN(C6)C(=O)CCSC[C@H](NC(=O)[C@H](CC(N)=O)NC(=O)[C@H](Cc6c[nH]cn6)NC(=O)[C@H]([C@@H](C)O)NC(=O)[C@H]([C@@H](C)O)NC(=O)[C@H](CC(C)C)NC(=O)[C@H](CC(=O)O)NC(=O)[C@@H](NC(=O)[C@H](C)N)CSCCC7=O)C(=O)N[C@@H](CCC(N)=O)C(=O)N[C@@H](Cc6c[nH]c7ccccc67)C(=O)NCC(=O)N[C@@H]([C@@H](C)CC)C(=O)N5)C(N)=O)nn4)nn3)C(N)=O)NC1=O)C(=O)CCSC[C@H](NC(=O)[C@H](C)N)C(=O)N[C@@H](CC(=O)O)C(=O)N[C@@H](CC(C)C)C(=O)N[C@@H]([C@@H](C)O)C(=O)N[C@@H]([C@@H](C)O)C(=O)N[C@@H](Cc1c[nH]cn1)C(=O)N[C@@H](CC(N)=O)C(=O)N2` [BCY15923] are 0.044 nM and “dose-dependent NK cell response to kill”.
With “BCY17235: EphA2 peptide BCY9594 linked to NKp46 peptide (BCY17224) and CD16a peptide (BCY13883) via a TCA-[Peg23]3 linker (peptide 1 A[hArg]DC[Hyp]LVNPLCLHP[dD]W[hArg]C; peptide 2 Ac-CY[Cba]PDYLC[dA]DEYCK(Pent4ynoyl); peptide 3 ACRWSVEDPCGAWCAK(Pent4ynoyl); linker I:4-I:11-I:18, II:1-II:8-II:13 via TATA; linker III:2-III:10-III:14 via TBMT; also: chain 1 N-terminus and the K(PYA) of chains 2 and 3 joined through TCA-[Peg23]3 linker)”, the EC50 in series [2] (NK:HT1080-luc co-culture, 24 hours, four-parameter logistic regression, FIGS. 2-4, 6-8, 10, read-out: EC50 NK cytotoxicity (tumor cell killing)) was determined as 0.014 nM. In addition, in series [2], the “effect on tumor cell killing” value is “enhanced, dose-dependent effect on tumor cell killing”.

B1: heterotandem bicyclic peptide complex BCY21686 (peptide)
peptide 1: A[hArg]DC[Hyp]LVNPLCLHP[dD]W[hArg]C
peptide 2: Ac-CY[Cba]PDYLC[dA]DEYCK(Pent4ynoyl)
modifications: linker I:4-I:11-I:18, II:1-II:8-II:13 via TATA; not fully specified (bridges); also: EphA2:NKp46 1:3, three copies of chain 2 on the linker, linker also given with PEG3-acid, X5, X17: HyP or HArg
B1 came in with an EC50, NK cytotoxicity assay (HT1080-luc luminescence) in series [3] of 0.0013 nM.

B2: heterotandem bicyclic peptide complex BCY18731 (peptide)
peptide 1: A[hArg]DC[Hyp]LVNPLCLHP[dD]W[hArg]C
peptide 2: Ac-CY[Cba]PDYLC[dA]DEYCK(Pent4ynoyl)
modifications: linker I:4-I:11-I:18, II:1-II:8-II:13 via TATA; not fully specified (bridges); also: joined via azide-PEG24-acid linker (N-terminus of chain 1 to PYA of chain 2, triazole)
For B2, the EC50, NK cytotoxicity assay (HT1080-luc luminescence) in series [3] came to 0.018 nM.
